Results taken from paper PMC6979384, “Characterization of the plant homeodomain (PHD) reader family for their histone tail interactions” (Epigenetics & Chromatin, 2020).

Experiments:
Assay in all cases: Histone peptide microarray
Type in all cases: binding, human
Conditions in all cases: histone peptide array
AIRE (PP) = tested on: AIRE (PP)
How it was run: (§1)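 Recombinant GST-PHD protein at 0.5 μM; 293-member modified histone peptide array; signals averaged from four repeats ± SD.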

BAZ2B = tested on: BAZ2B
How it was run: as §1

BPTF (PB) = tested on: BPTF (PB)
How it was run: as §1

CHD4 (PPCC) = tested on: CHD4 (PPCC)
How it was run: as §1

CHD5 (PCC) = tested on: CHD5 (PCC)
How it was run: as §1

CHD5 (PPCC) = tested on: CHD5 (PPCC)
How it was run: as §1

DIDO1 = tested on: DIDO1
How it was run: as §1

DPF2 (PPC2W2) = tested on: DPF2 (PPC2W2)
How it was run: as §1

ING1 = tested on: ING1
How it was run: as §1

ING2 = tested on: ING2
How it was run: as §1

ING3 = tested on: ING3
How it was run: as §1

ING4 = tested on: ING4
How it was run: as §1

ING5 = tested on: ING5
How it was run: as §1

KDM4C (TTP) = tested on: KDM4C (TTP)
How it was run: as §1

KDM5A (1) = tested on: KDM5A (1)
How it was run: as §1

KDM5A (3) = tested on: KDM5A (3)
How it was run: as §1

KDM5B (1) = tested on: KDM5B (1)
How it was run: as §1

KDM5B (3) = tested on: KDM5B (3)
How it was run: as §1

KDM7A = tested on: KDM7A
How it was run: as §1

MLL5 = tested on: MLL5
How it was run: as §1

MORC3 (CW) = tested on: MORC3 (CW)
How it was run: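 Steps: express and purify GST-tagged PHD reader; incubate 0.5 μM protein on a peptide microarray (293 histone peptides, single or combined PTMs) following an optimized protocol; average signal across 4 replicates.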

PHF13 = tested on: PHF13
How it was run: as §1

PHF21A = tested on: PHF21A
How it was run: as §1

PHF23 = tested on: PHF23
How it was run: as §1

PHF2 = tested on: PHF2
How it was run: as §1

PHF8 = tested on: PHF8
How it was run: as §1

PHRF1 (RP) = tested on: PHRF1 (RP)
How it was run: as §1

RAG2 = tested on: RAG2
How it was run: as §1

SP140L = tested on: SP140L
How it was run: as §1

TAF3 = tested on: TAF3
How it was run: as §1

TRIM66 (PB) = tested on: TRIM66 (PB)
How it was run: as §1

[1] = GST-tagged AIRE (PP), arrays performed twice, n of 4
[2] = GST-tagged BAZ2B, arrays performed twice, n of 4
[3] = GST-tagged BPTF (PB = PHD + Bromodomain), arrays performed twice, n of 4
[4] = GST-tagged CHD4 (PPCC = Dual PHD + Dual Chromodomain), arrays performed twice, n of 4
[5] = GST-tagged CHD5 (PCC = PHD + Dual Chromodomain), arrays performed twice, n of 4
[6] = GST-tagged CHD5 (PPCC = Dual PHD + Dual Chromodomain), arrays performed twice, n of 4
[7] = GST-tagged DIDO1, arrays performed twice, n of 4
[8] = GST-tagged DPF2 (PPC2W2 = Dual PHD + C2W2-type Zn-finger), arrays performed twice, n of 4
[9] = GST-tagged ING1, arrays performed twice, n of 4
[10] = GST-tagged ING2, arrays performed twice, n of 4
[11] = GST-tagged ING3, arrays performed twice, n of 4
[12] = GST-tagged ING4, arrays performed twice, n of 4
[13] = GST-tagged ING5, arrays performed twice, n of 4
[14] = GST-tagged KDM4C (TTP = Tandem Tudor domain + PHD), arrays performed twice, n of 4
[15] = GST-tagged KDM5A (1), arrays performed twice, n of 4
[16] = GST-tagged KDM5A (3), arrays performed twice, n of 4
[17] = GST-tagged KDM5B (1), arrays performed twice, n of 4
[18] = GST-tagged KDM5B (3), arrays performed twice, n of 4
[19] = GST-tagged KDM7A, arrays performed twice, n of 4
[20] = GST-tagged MLL5, arrays performed twice, n of 4
[21] = GST-tagged MORC3 (CW = CW-type Zn-finger), arrays performed twice, n of 4
[22] = GST-tagged PHF13, arrays performed twice, n of 4
[23] = GST-tagged PHF21A, arrays performed twice, n of 4
[24] = GST-tagged PHF23, arrays performed twice, n of 4
[25] = GST-tagged PHF2, arrays performed twice, n of 4
[26] = GST-tagged PHF8, arrays performed twice, n of 4
[27] = GST-tagged PHRF1 (RP), arrays performed twice, n of 4
[28] = GST-tagged RAG2, arrays performed twice, n of 4
[29] = GST-tagged SP140L, arrays performed twice, n of 4
[30] = GST-tagged TAF3, arrays performed twice, n of 4
[31] = GST-tagged TRIM66 (PB = PHD + Bromodomain), arrays performed twice, n of 4
[32] = sheet "Array Heatmap", GST-tagged reader, total n = 4

H4K12ac + K16ac + K20me3: H4 11-27
Array Heatmap signal, AIRE (PP) (AIRE (PP); [1]): 0.5868
Array Heatmap signal, BAZ2B (BAZ2B; [2]): 0.5532
Array Heatmap signal, BPTF (PB) (BPTF (PB); [3]): 0.3647
Array Heatmap signal, CHD4 (PPCC) (CHD4 (PPCC); [4]): 0.6123
Array Heatmap signal, CHD5 (PCC) (CHD5 (PCC); [5]): 0.9097
Array Heatmap signal, CHD5 (PPCC) (CHD5 (PPCC); [6]): 0.6012
Array Heatmap signal, DIDO1 (DIDO1; [7]): 0.6408
Array Heatmap signal, DPF2 (PPC2W2) (DPF2 (PPC2W2); [8]): 0.7109
Array Heatmap signal, ING1 (ING1; [9]): 0.5304
Array Heatmap signal, ING2 (ING2; [10]): 0.5812
Array Heatmap signal, ING3 (ING3; [11]): 0.4869
Array Heatmap signal, ING4 (ING4; [12]): 0.5105
Array Heatmap signal, ING5 (ING5; [13]): 0.3933
Array Heatmap signal, KDM4C (TTP) (KDM4C (TTP); [14]): 0.5508
Array Heatmap signal, KDM5A (1) (KDM5A (1); [15]): 0.5006
Array Heatmap signal, KDM5A (3) (KDM5A (3); [16]): 0.4096
Array Heatmap signal, KDM5B (1) (KDM5B (1); [17]): 0.6527
Array Heatmap signal, KDM5B (3) (KDM5B (3); [18]): 0.5038
Array Heatmap signal, KDM7A (KDM7A; [19]): 0.4502
Array Heatmap signal, MLL5 (MLL5; [20]): 0.5614
Array Heatmap signal, MORC3 (CW) (MORC3 (CW); [21]): 0.4027
Array Heatmap signal, PHF13 (PHF13; [22]): 0.6523
Array Heatmap signal, PHF21A (PHF21A; [23]): 0.52
Array Heatmap signal, PHF23 (PHF23; [24]): 0.5129
Array Heatmap signal, PHF2 (PHF2; [25]): 0.4705
Array Heatmap signal, PHF8 (PHF8; [26]): 0.3563
Array Heatmap signal, PHRF1 (RP) (PHRF1 (RP); [27]): 0.4386
Array Heatmap signal, RAG2 (RAG2; [28]): 0.2525
Array Heatmap signal, SP140L (SP140L; [29]): 0.368
Array Heatmap signal, TAF3 (TAF3; [30]): 0.2674
Array Heatmap signal, TRIM66 (PB) (TRIM66 (PB); [31]): 0.6534

H3K9ac + S10p: H3 1-20
Array Heatmap signal, AIRE (PP) (AIRE (PP); [32]): 0.6057
Array Heatmap signal, BAZ2B (BAZ2B; [32]): 0.4929
Array Heatmap signal, BPTF (PB) (BPTF (PB); [32]): 0.3364
Array Heatmap signal, CHD4 (PPCC) (CHD4 (PPCC); [32]): 0.5496
Array Heatmap signal, CHD5 (PCC) (CHD5 (PCC); [32]): 0.846
Array Heatmap signal, CHD5 (PPCC) (CHD5 (PPCC); [32]): 0.5687
Array Heatmap signal, DIDO1 (DIDO1; [32]): 0.6052
Array Heatmap signal, DPF2 (PPC2W2) (DPF2 (PPC2W2); [32]): 0.6808
Array Heatmap signal, ING1 (ING1; [32]): 0.4982
Array Heatmap signal, ING2 (ING2; [32]): 0.597
Array Heatmap signal, ING3 (ING3; [32]): 0.4478
Array Heatmap signal, ING4 (ING4; [32]): 0.4766
Array Heatmap signal, ING5 (ING5; [32]): 0.3597
Array Heatmap signal, KDM4C (TTP) (KDM4C (TTP); [32]): 0.5441
Array Heatmap signal, KDM5A (1) (KDM5A (1); [32]): 0.5046
Array Heatmap signal, KDM5A (3) (KDM5A (3); [32]): 0.462
Array Heatmap signal, KDM5B (1) (KDM5B (1); [32]): 0.6761
Array Heatmap signal, KDM5B (3) (KDM5B (3); [32]): 0.53
Array Heatmap signal, KDM7A (KDM7A; [32]): 0.5012
Array Heatmap signal, MLL5 (MLL5; [32]): 0.5353
Array Heatmap signal, MORC3 (CW) (MORC3 (CW); [32]): 0.3729
Array Heatmap signal, PHF13 (PHF13; [32]): 0.5949
Array Heatmap signal, PHF21A (PHF21A; [32]): 0.4788
Array Heatmap signal, PHF23 (PHF23; [32]): 0.5104
Array Heatmap signal, PHF2 (PHF2; [32]): 0.4212
Array Heatmap signal, PHF8 (PHF8; [32]): 0.3696
Array Heatmap signal, PHRF1 (RP) (PHRF1 (RP); [32]): 0.4935
Array Heatmap signal, RAG2 (RAG2; [32]): 0.2427
Array Heatmap signal, SP140L (SP140L; [32]): 0.3709
Array Heatmap signal, TAF3 (TAF3; [32]): 0.2808
Array Heatmap signal, TRIM66 (PB) (TRIM66 (PB); [32]): 0.5818

H3K4me3 + R8me2s + K9me3: H3 1-20
Array Heatmap signal, AIRE (PP) (AIRE (PP); [1]): 0.378
Array Heatmap signal, BAZ2B (BAZ2B; [2]): 0.4293
Array Heatmap signal, BPTF (PB) (BPTF (PB); [3]): 0.3866
Array Heatmap signal, CHD4 (PPCC) (CHD4 (PPCC); [4]): 0.5208
Array Heatmap signal, CHD5 (PCC) (CHD5 (PCC); [5]): 0.7143
Array Heatmap signal, CHD5 (PPCC) (CHD5 (PPCC); [6]): 0.5185
Array Heatmap signal, DIDO1 (DIDO1; [7]): 0.802
Array Heatmap signal, DPF2 (PPC2W2) (DPF2 (PPC2W2); [8]): 0.6565
Array Heatmap signal, ING1 (ING1; [9]): 0.7489
Array Heatmap signal, ING2 (ING2; [10]): 0.784
Array Heatmap signal, ING3 (ING3; [11]): 0.5388
Array Heatmap signal, ING4 (ING4; [12]): 0.4627
Array Heatmap signal, ING5 (ING5; [13]): 0.3819
Array Heatmap signal, KDM4C (TTP) (KDM4C (TTP); [14]): 0.4847
Array Heatmap signal, KDM5A (1) (KDM5A (1); [15]): 0.429
Array Heatmap signal, KDM5A (3) (KDM5A (3); [16]): 0.7166
Array Heatmap signal, KDM5B (1) (KDM5B (1); [17]): 0.5808
Array Heatmap signal, KDM5B (3) (KDM5B (3); [18]): 0.5614
Array Heatmap signal, KDM7A (KDM7A; [19]): 0.3751
Array Heatmap signal, MLL5 (MLL5; [20]): 0.7037
Array Heatmap signal, MORC3 (CW) (MORC3 (CW); [21]): 0.5559
Array Heatmap signal, PHF13 (PHF13; [22]): 0.633
Array Heatmap signal, PHF21A (PHF21A; [23]): 0.4267
Array Heatmap signal, PHF23 (PHF23; [24]): 0.6635
Array Heatmap signal, PHF2 (PHF2; [25]): 0.8739
Array Heatmap signal, PHF8 (PHF8; [26]): 0.5138
Array Heatmap signal, PHRF1 (RP) (PHRF1 (RP); [27]): 0.4616
Array Heatmap signal, RAG2 (RAG2; [28]): 0.4516
Array Heatmap signal, SP140L (SP140L; [29]): 0.3193
Array Heatmap signal, TAF3 (TAF3; [30]): 0.3814
Array Heatmap signal, TRIM66 (PB) (TRIM66 (PB); [31]): 0.6066
